From the NIST ThermoML archive (doi:10.1021/acs.jced.6b00180)
Numbers after ± are expanded uncertainties.

Experiments:
[1] = Liquid, Ebulliometric method (Recirculating still)
[2] = refractive index (Na D-line) (dimensionless); conditions: 293.15 K; 101.33 kPa; Liquid; Standard Abbe refractometry
[3] = Boiling temperature at pressure P; conditions: 101.33 kPa; Liquid; Ebulliometric method (Recirculating still)

Row | SMILES | refractive index [2] | Boiling temperature at pressure P [3] [°C] | also measured
1 | C=CC(=C)C [2-methyl-1,3-butadiene] | 1.4218 ± 0.0005 |  | vapor or sublimation pressure ([1]; 336.35 K): 250 ± 13 kPa
2 | CC=C(C)C [2-methyl-2-butene] | 1.3876 ± 0.0005 |  | vapor or sublimation pressure ([1]; 341.15 K): 250 ± 13 kPa
3 | CCC(C)C [2-methylbutane] | 1.3535 ± 0.0005 |  | vapor or sublimation pressure ([1]; 330.05 K): 250 ± 13 kPa
4 | CC(C)=O [acetone] | 1.3586 ± 0.0005 | 56.2 ± 1 | vapor or sublimation pressure ([1]; 329.35 K): 101.3 ± 5.1 kPa
5 | C1CCCC1 [cyclopentane] | 1.4064 ± 0.0005 |  | vapor or sublimation pressure ([1]; 352.85 K): 250 ± 13 kPa
6 | C1=CCCC1 [cyclopentene] | 1.4224 ± 0.0005 |  | vapor or sublimation pressure ([1]; 347.35 K): 250 ± 13 kPa
7 | CCO [ethanol] | 1.3613 ± 0.0005 | 78.4 ± 1 | vapor or sublimation pressure ([1]; 351.55 K): 101.3 ± 5.1 kPa
8 | CCCCCC [hexane] | 1.3748 ± 0.0005 |  | 
9 | CO [methanol] | 1.3286 ± 0.0005 | 64.7 ± 1 | 
10 | CCCCC [pentane] | 1.3578 ± 0.0005 |  | vapor or sublimation pressure ([1]; 338.35 K): 250 ± 13 kPa
